pEC50, pIC50: −log10 of the molar value. The source made the active and inactive calls. No cut-off for these calls is given here.
Tests used:
[1] = Bioavailability in C57 mouse at 1 mg/kg, iv and 10 mg/kg, po; type: ADME, organism-based; details: in vivo
[2] = Half life in C57 mouse at 1 mg/kg, iv; type: ADME, organism-based; design: dose 1 mg/kg, route intravenous; details: in vivo
[3] = Clearance in C57 mouse at 1 mg/kg, iv and 10 mg/kg, po; type: ADME, organism-based; details: in vivo
Mus musculus [4] = assay: Increase in CYP7A1 gene expression in LDL receptor knockout C57BL/6 mouse liver at 15 mg/kg administered with Western diet; type: functional
Mus musculus [5] = assay: Decrease in total cholesterol level in LDL receptor knockout C57BL/6 mouse plasma at 15 mg/kg administered with Western diet after 8 weeks; type: functional; design: scale not given: the % may be the effect or the level left
HepG2 = assay: Effect on SREBP1c gene expression in human HepG2 cells; type: functional, cell-based
[6] = target: Retinoid X receptor (Homo sapiens) (UniProt P28702+P48443+P19793); assay: (§1) Displacement of radiolabeled 9-cis retinoic acid from human RXR by scintillation proximity assay; type: protein assay
[7] = target: T1, Oxysterols receptor LXR-beta (Homo sapiens, UniProt P55055)
T1 sequence (P55055 whole entry): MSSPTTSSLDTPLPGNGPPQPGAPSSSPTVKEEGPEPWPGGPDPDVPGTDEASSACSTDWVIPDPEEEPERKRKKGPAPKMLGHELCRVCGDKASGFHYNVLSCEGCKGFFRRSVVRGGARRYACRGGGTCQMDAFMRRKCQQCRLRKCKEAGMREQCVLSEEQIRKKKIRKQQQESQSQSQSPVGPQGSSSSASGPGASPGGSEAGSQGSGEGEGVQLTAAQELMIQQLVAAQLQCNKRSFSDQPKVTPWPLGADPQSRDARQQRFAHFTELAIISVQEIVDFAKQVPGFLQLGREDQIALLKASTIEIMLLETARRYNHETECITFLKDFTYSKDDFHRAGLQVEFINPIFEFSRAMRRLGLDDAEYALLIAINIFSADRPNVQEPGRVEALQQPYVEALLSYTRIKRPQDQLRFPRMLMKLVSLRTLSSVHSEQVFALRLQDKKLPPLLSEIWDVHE

Mus musculus [8] = assay: Reduction in atherosclerotic lesion size in LDL receptor knockout C57BL/6 mouse thoracic aorta at 15 mg/kg administered with Western diet after 8 weeks by oil Red-O staining; type: functional; design: scale not given: the % may be the effect or the level left
THP-1 = assay: Effect on ABCA1 gene expression in human differentiated THP1 cells relative to TO901317; type: functional
[9] = AUC (0 to infinity) in C57 mouse at 1 mg/kg, iv and 10 mg/kg, po; type: ADME, organism-based; details: plasma
[10] = Cmax in male C57 mice after 10 mg/kg oral dose; type: ADME, organism-based; design: dose 10 mg/kg, route oral; details: C57, mouse, in vivo
[11] = Terminal half life in C57 mouse at 10 mg/kg, po; type: ADME, organism-based; design: dose 10 mg/kg, route oral; details: in vivo, read-out: beta t1/2 (converted)
Syrian golden hamster = assay: Induction of FAS gene expression in golden Syrian hamster liver at 100 mg/kg administered with chow diet for 7 days measured after 2 hrs of final dose by real time PCR; type: functional, organism-based; design: dose 100 mg/kg; details: Mesocricetus auratus
Retinoid X receptor = target: T2, Retinoid X receptor (Homo sapiens, UniProt P28702+P48443+P19793); assay: as §1; type: protein assay
T2 sequence (P28702 whole entry): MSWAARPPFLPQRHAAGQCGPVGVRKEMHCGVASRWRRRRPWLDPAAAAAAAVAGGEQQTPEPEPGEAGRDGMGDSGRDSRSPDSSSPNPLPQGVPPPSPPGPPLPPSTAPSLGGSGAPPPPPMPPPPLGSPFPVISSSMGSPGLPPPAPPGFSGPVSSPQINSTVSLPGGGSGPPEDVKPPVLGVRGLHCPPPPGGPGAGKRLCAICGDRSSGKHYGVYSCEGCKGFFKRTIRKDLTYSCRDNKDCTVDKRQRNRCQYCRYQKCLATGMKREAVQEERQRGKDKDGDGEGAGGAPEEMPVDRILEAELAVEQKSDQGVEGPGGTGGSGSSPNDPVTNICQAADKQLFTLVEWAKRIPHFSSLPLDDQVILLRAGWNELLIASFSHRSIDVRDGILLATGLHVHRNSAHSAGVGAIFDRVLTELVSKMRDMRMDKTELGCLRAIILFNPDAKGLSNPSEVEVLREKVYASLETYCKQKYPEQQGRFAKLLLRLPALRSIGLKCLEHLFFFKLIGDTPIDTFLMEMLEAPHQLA
T2 sequence (P48443 whole entry): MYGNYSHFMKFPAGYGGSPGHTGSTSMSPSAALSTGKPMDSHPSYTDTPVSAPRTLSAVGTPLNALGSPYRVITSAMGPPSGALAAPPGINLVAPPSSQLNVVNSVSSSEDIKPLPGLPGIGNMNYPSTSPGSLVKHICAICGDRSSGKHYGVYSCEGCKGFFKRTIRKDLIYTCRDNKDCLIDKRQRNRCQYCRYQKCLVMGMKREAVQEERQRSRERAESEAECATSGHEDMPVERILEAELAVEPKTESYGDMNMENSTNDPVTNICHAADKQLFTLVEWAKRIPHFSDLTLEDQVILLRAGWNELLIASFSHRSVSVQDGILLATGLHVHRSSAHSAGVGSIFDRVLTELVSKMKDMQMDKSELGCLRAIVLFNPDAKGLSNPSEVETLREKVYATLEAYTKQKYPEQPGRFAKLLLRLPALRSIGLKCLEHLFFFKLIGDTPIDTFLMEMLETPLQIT
T2 sequence (P19793 whole entry): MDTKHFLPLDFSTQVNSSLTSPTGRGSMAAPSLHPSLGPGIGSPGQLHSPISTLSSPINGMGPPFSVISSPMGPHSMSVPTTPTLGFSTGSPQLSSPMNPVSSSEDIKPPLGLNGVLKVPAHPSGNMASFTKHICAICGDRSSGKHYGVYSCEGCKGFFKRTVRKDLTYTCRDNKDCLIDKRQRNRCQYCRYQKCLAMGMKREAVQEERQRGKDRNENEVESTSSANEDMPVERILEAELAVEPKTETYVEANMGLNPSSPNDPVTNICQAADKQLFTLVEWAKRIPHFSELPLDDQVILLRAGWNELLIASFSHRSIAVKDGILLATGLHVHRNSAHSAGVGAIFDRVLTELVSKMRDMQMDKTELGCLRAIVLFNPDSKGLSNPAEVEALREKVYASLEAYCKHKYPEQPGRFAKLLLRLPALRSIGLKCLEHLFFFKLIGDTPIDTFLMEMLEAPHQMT

Work on `Fc1ccc(-c2c3cccc(C(F)(F)F)c3nn2Cc2ccccc2F)cc1` yielded a bioavailability [1] of 106%, a half-life [2] of 7.9 h and a clearance [3] of 57 mL/min/kg. The “fold change (FC)” value (Mus musculus [4]) was 4, the Activity (Mus musculus [5]) was 10% and the pEC50 (HepG2) was 5.91. For the same compound, the Activity [6] was “inactive”, the pIC50 [7] was 7.48 and the Activity (Mus musculus [8]) was 28%. The Efficacy (THP-1) was 89%, the AUC(0-inf) [9] was 3100 ng·h/mL and the Cmax [10] was 633 ng/mL. For the same compound, the half-life [11] was 5.8 h and the Activity (Syrian golden hamster) was “inactive”.

With `Fc1ccc(-c2c3cccc(C(F)(F)F)c3nn2Cc2ccc(F)cc2Cl)cc1` [LXR-623] the pEC50 (HepG2) was 5.67, the IC50 (Retinoid X receptor) was > 10000 nM and the pIC50 [7] was 7.62. It also gave an Efficacy (THP-1) of 100%.

Reference: ChEMBL document CHEMBL1152299, “Indazole-based liver X receptor (LXR) modulators with maintained atherosclerotic lesion reduction activity but diminished stimulation of hepatic triglyceride synthesis” (J Med Chem, 2008)
